Measured values published in patent US20200399318A1, “PEPTIDE INHIBITORS OF PHOSPHOGLYCERATE MUTASE AND METHODS OF USE” (priority 2016, published 2020).
Where a SMILES comes first, the peptide text is derived from it. Bridges are numbered along the chain shown (N, C = ends). [ ]: non-standard residue; d: D form.

How the values were obtained:
[1] = system: D. immitis iPGM; type: biochemical, Dirofilaria immitis
[2] = molecular target: O. volvulus iPGM (Onchocerca volvulus, UniProt I6LDA6); assay: biochemical
Chain of O. volvulus iPGM (I6LDA6 whole entry, looked up): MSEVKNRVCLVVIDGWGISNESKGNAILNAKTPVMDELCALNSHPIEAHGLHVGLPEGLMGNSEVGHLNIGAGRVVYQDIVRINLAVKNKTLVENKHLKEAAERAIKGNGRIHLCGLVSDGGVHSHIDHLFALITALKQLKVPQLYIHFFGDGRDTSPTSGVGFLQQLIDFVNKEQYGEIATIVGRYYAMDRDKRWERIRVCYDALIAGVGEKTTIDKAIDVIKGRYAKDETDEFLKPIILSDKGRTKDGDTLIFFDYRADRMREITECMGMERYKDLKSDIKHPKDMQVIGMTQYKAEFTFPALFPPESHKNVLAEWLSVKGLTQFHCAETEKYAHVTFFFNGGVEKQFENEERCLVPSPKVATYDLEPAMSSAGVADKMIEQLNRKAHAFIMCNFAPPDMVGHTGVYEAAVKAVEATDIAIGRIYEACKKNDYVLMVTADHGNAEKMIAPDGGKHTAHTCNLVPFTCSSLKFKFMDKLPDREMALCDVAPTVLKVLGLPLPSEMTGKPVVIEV

[3] = molecular target: B. malayi iPGM (Brugia malayi, UniProt Q4VWF8); assay: biochemical
Chain of B. malayi iPGM (Q4VWF8 whole entry, looked up): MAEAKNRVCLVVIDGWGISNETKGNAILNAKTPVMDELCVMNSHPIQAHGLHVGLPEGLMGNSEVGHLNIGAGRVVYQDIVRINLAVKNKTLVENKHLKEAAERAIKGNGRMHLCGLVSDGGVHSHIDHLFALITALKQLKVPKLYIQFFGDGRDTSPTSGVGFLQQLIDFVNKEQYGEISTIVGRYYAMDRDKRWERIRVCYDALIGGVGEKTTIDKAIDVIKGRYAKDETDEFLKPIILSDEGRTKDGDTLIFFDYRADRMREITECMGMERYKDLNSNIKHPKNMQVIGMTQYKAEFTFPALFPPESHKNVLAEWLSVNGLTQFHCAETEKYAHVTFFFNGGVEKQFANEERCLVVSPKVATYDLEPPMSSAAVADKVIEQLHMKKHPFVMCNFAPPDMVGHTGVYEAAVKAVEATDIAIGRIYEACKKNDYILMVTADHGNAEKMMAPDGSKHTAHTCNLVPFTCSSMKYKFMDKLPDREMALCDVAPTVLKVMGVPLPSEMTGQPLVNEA

[4] = molecular target: E. coli iPGM (Escherichia coli, UniProt P37689); assay: biochemical
Chain of E. coli iPGM (P37689 whole entry, looked up): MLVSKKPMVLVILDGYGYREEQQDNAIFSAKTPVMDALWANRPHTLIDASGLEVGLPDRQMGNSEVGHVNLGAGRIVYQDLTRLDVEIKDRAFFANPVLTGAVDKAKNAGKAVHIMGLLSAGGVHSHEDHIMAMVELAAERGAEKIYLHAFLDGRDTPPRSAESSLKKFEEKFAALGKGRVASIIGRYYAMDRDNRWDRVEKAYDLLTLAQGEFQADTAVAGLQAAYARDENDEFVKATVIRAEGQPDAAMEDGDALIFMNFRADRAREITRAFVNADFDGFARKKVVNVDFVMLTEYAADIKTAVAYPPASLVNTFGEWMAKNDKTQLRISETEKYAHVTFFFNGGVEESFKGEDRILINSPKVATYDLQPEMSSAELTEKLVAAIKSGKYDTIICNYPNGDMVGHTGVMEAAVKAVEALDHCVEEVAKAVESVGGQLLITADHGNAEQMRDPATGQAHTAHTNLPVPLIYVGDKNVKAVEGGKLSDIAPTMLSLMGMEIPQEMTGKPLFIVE

[5] = read-out: O. volvulus iPGM Max Inhibition
[6] = read-out: B. malayi iPGM Max Inhibition
[7] = read-out: E. coli iPGM Max Inhibition

Row | Compound | D. immitis iPGM Max Inhibition [1] | O. volvulus iPGM PIC50, M [2] [M] | Emax [2, 5] [%] | pIC50 B. malayi iPGM [3] | Emax [3, 6] [%] | pIC50 E. coli iPGM [4] | Emax [4, 7] [%] | pIC50 O. volvulus iPGM [2] | E. coli iPGM PIC50, M [4] [M] | B. malayi iPGM PIC50, M [3] [M] | inhibition at 0.0005 µM [2, 5] [%] | inhibition at 0.0005 µM [3, 6] [%] | inhibition at 0.0005 µM [4, 7] [%]
1 | CC[C@H](C)[C@@H]1NC(=O)[C@H](CCC(=O)O)NC(=O)[C@@H]2CCCN2C(=O)[C@H](C)NC(=O)[C@H](CC(N)=O)NC(=O)[C@@H]2CCCN2C(=O)[C@H](Cc2c[nH]c3ccccc23)NC(=O)[C@H](CO)NC(=O)[C@@H](Cc2ccc(O)cc2)NC(=O)CSC[C@@H](C(=O)N[C@@H](CS)C(=O)NCC(N)=O)NC(=O)[C@H](CCCCN)NC(=O)[C@H](Cc2c[nH]c3ccccc23)NC1=O [Bm-1] ({CH2CO}-[dY]SWPNAPEIWKCCG-NH2; thioether N-12) | −85.9 ± 0.2 | 5.88 ± 0.53 | 82.1 ± 5.4 | 5.89 | 82.8 ± 0.9 | 5.31 | 60.6 ± 9 |  |  |  |  |  | 
2 | CC(C)C[C@@H]1NC(=O)[C@@H](Cc2ccc(O)cc2)NC(=O)CSC[C@@H](C(=O)N[C@@H](CC(N)=O)C(=O)N[C@H](C(=O)N[C@@H](CS)C(=O)NCC(N)=O)[C@@H](C)O)NC(=O)[C@H](CC(N)=O)NC(=O)[C@@H]2CCCN2C(=O)[C@H](Cc2c[nH]c3ccccc23)NC(=O)[C@H](CCC(=O)O)NC1=O [Bm-4] ({CH2CO}-[dY]LEWPNCNTCG-NH2; thioether N-7) | −88.1 ± 0.8 |  | 85.7 ± 6.5 | 6.24 | 86.3 ± 1.4 |  | 76.3 ± 8.3 | 6.10 | 5.56 ± 0.16 |  |  |  | 
3 | CC(C)C[C@@H]1NC(=O)[C@@H](Cc2ccc(O)cc2)NC(=O)CSC[C@@H](C(=O)N[C@@H](CC(N)=O)C(=O)N[C@H](C(=O)N[C@@H](CS)C(N)=O)[C@@H](C)O)NC(=O)[C@H](CC(N)=O)NC(=O)[C@@H]2CCCN2C(=O)[C@H](Cc2c[nH]c3ccccc23)NC(=O)[C@H](CCC(=O)O)NC1=O [Bm-4a] ({CH2CO}-[dY]LEWPNCNTC-NH2; thioether N-7) | −90.5 ± 1.5 | 6.14 ± 0.62 | 87.8 ± 4.1 |  | 88 ± 0.4 |  | 78.3 ± 3.4 |  | 5.58 ± 0.19 | 6.31 ± 0.29 |  |  | 
4 | CC(C)C[C@@H]1NC(=O)[C@@H](Cc2ccc(O)cc2)NC(=O)CSC[C@@H](C(=O)N[C@@H](CO)C(=O)N[C@H](C(=O)N[C@@H](CS)C(=O)NCC(N)=O)[C@@H](C)O)NC(=O)[C@H](CC(N)=O)NC(=O)[C@@H]2CCCN2C(=O)[C@H](Cc2c[nH]c3ccccc23)NC(=O)[C@H](CC(=O)O)NC1=O [Bm-5] ({CH2CO}-[dY]LDWPNCSTCG-NH2; thioether N-7) | −87.1 ± 3.2 | 5.99 ± 0.69 | 83.1 ± 7.3 | 6.16 | 84.7 ± 1.2 |  | 74.3 ± 9.5 |  | 5.54 ± 0.20 |  |  |  | 
5 | C[C@@H](O)[C@H](NC(=O)[C@H](CO)NC(=O)[C@@H]1CSCC(=O)N[C@H](Cc2ccc(O)cc2)C(=O)N2CCC[C@H]2C(=O)N[C@@H](CCC(=O)O)C(=O)N[C@@H](Cc2c[nH]c3ccccc23)C(=O)N2CCC[C@H]2C(=O)N[C@@H](CC(N)=O)C(=O)N1)C(=O)N[C@@H](CS)C(=O)NCC(N)=O [Bm-6] ({CH2CO}-[dY]PEWPNCSTCG-NH2; thioether N-7) | −90.2 ± 1.2 | 6.08 ± 0.53 | 86 ± 3.2 | 6.16 | 86.8 ± 0.6 |  | 77.4 ± 4.3 |  | 5.55 ± 0.07 |  |  |  | 
6 | CC(C)[C@@H]1NC(=O)[C@H](C)NC(=O)[C@@H](Cc2ccc(O)cc2)NC(=O)CSC[C@@H](C(=O)N[C@@H](CCCNC(=N)N)C(=O)N[C@H](C(=O)N[C@@H](CS)C(=O)NCC(N)=O)[C@@H](C)O)NC(=O)[C@H](CC(N)=O)NC(=O)[C@@H]2CCCN2C(=O)[C@H](Cc2c[nH]c3ccccc23)NC1=O [Bm-7] ({CH2CO}-[dY]AVWPNCRTCG-NH2; thioether N-7) | −83.1 ± 9.7 | 5.37 ± 0.52 | 78 ± 19.9 | 5.28 | 74 ± 10.1 |  | 69.7 ± 12.3 |  | 5.12 ± 0.09 |  |  |  | 
7 | CC(C)C[C@H](NC(=O)[C@H](Cc1ccc(O)cc1)NC(=O)[C@@H]1CSCC(=O)N[C@H](Cc2ccc(O)cc2)C(=O)N[C@@H](CC(=O)O)C(=O)N[C@@H](Cc2ccc(O)cc2)C(=O)N2CCC[C@H]2C(=O)NCC(=O)N[C@@H](CC(=O)O)C(=O)N[C@@H](Cc2c[nH]cn2)C(=O)N1)C(=O)N[C@@H](Cc1ccc(O)cc1)C(=O)NCC(=O)N[C@H](C(=O)N[C@@H](CS)C(=O)NCC(N)=O)[C@@H](C)O [Ce-1] |  |  | 95.4 ± 2.6 |  | 94 ± 3.4 |  | 96.5 ± 4.2 |  |  |  |  |  | 
8 | CC(C)C[C@H](NC(=O)[C@H](Cc1ccc(O)cc1)NC(=O)[C@@H]1CSCC(=O)N[C@H](Cc2ccc(O)cc2)C(=O)N[C@@H](CC(=O)O)C(=O)N[C@@H](Cc2ccc(O)cc2)C(=O)N2CCC[C@H]2C(=O)NCC(=O)N[C@@H](CC(=O)O)C(=O)N[C@@H](Cc2ccc(O)cc2)C(=O)N1)C(=O)N[C@@H](Cc1ccc(O)cc1)C(=O)NCC(=O)N[C@H](C(=O)N[C@@H](CO)C(=O)NCC(N)=O)[C@@H](C)O [Ce-2S] |  |  | 97 ± 1.6 |  | 97.7 ± 0.6 |  | 105 ± 2.5 |  |  |  | 69.8 ± 9.3 | 77.1 ± 7.5 | 68.1 ± 8.9
9 | CC(C)C[C@H](NC(=O)[C@H](Cc1ccc(O)cc1)NC(=O)[C@@H]1CSCC(=O)N[C@H](Cc2ccc(O)cc2)C(=O)N[C@@H](CC(=O)O)C(=O)N[C@@H](Cc2ccc(O)cc2)C(=O)N2CCC[C@H]2C(=O)NCC(=O)N[C@@H](CC(=O)O)C(=O)N[C@@H](Cc2ccc(O)cc2)C(=O)N1)C(=O)N[C@@H](Cc1ccc(O)cc1)C(=O)NCC(=O)N[C@H](C(N)=O)[C@@H](C)O [Ce-2b] |  |  | 80.1 ± 2.1 |  | 91.8 ± 5.4 |  | 95.3 ± 9 |  |  |  |  |  | 
10 | CC(C)C[C@H](NC(=O)[C@H](Cc1ccc(O)cc1)NC(=O)[C@@H]1CSCC(=O)N[C@H](Cc2ccc(O)cc2)C(=O)N[C@@H](CC(=O)O)C(=O)N[C@@H](Cc2ccc(O)cc2)C(=O)N2CCC[C@H]2C(=O)NCC(=O)N[C@@H](CC(=O)O)C(=O)N[C@@H](Cc2ccc(O)cc2)C(=O)N1)C(=O)N[C@@H](Cc1ccc(O)cc1)C(=O)NCC(N)=O [Ce-2c] |  |  | 78.4 |  | 88.2 |  | 89.1 |  |  |  |  |  | 
11 | CC(C)C[C@H](NC(=O)[C@H](Cc1ccc(O)cc1)NC(=O)[C@@H]1CSCC(=O)N[C@H](Cc2ccc(O)cc2)C(=O)N[C@@H](CC(=O)O)C(=O)N[C@@H](Cc2ccc(O)cc2)C(=O)N2CCC[C@H]2C(=O)NCC(=O)N[C@@H](CC(=O)O)C(=O)N[C@@H](Cc2ccc(O)cc2)C(=O)N1)C(N)=O [Ce-2e] ({CH2CO}-[dY]DYPGDYCYL-NH2; thioether N-8) |  |  | 55.5 ± 1.4 |  | 82.7 ± 6.1 |  | 94.5 ± 9 |  |  |  |  |  | 
12 | NC(=O)[C@H](Cc1ccc(O)cc1)NC(=O)[C@@H]1CSCC(=O)N[C@H](Cc2ccc(O)cc2)C(=O)N[C@@H](CC(=O)O)C(=O)N[C@@H](Cc2ccc(O)cc2)C(=O)N2CCC[C@H]2C(=O)NCC(=O)N[C@@H](CC(=O)O)C(=O)N[C@@H](Cc2ccc(O)cc2)C(=O)N1 [Ce-2f] ({CH2CO}-[dY]DYPGDYCY-NH2; thioether N-8) |  |  | -4.3 |  | 14.8 |  | 79.6 |  |  |  |  |  | 
13 | CC[C@H](C)[C@@H]1NC(=O)[C@H](CCCNC(=N)N)NC(=O)[C@H](Cc2ccccc2)NC(=O)[C@@H]2CCCN2C(=O)[C@H](CC(N)=O)NC(=O)[C@H](C)NC(=O)[C@H](CC(C)C)NC(=O)[C@H]([C@@H](C)O)NC(=O)[C@H]([C@@H](C)CC)NC(=O)[C@H](Cc2ccc(O)cc2)NC(=O)CSC[C@@H](C(=O)NCC(N)=O)NC(=O)[C@H](Cc2c[nH]cn2)NC(=O)[C@H](CC(C)C)NC1=O [Ce-3] ({CH2CO}-YITLANPFRILHCG-NH2; thioether N-13) | −30.1 ± 32.2 | 5.26 ± 0.18 | 22.9 ± 30.8 |  | 13.3 ± 2 |  | 91.4 ± 1.3 |  | 6.27 ± 0.10 |  |  |  | 
14 | CC[C@H](C)[C@@H]1NC(=O)[C@H](CCCNC(=N)N)NC(=O)[C@H](Cc2ccccc2)NC(=O)[C@@H]2CCCN2C(=O)[C@H](CC(N)=O)NC(=O)[C@H](C)NC(=O)[C@H](CC(C)C)NC(=O)[C@H]([C@@H](C)O)NC(=O)[C@H]([C@@H](C)O)NC(=O)[C@H](Cc2ccc(O)cc2)NC(=O)CSC[C@@H](C(=O)NCC(N)=O)NC(=O)[C@H](Cc2c[nH]cn2)NC(=O)[C@H](CC(C)C)NC1=O [Ce-4] ({CH2CO}-YTTLANPFRILHCG-NH2; thioether N-13) | −22.1 ± 35.5 | 5.37 ± 0.14 | 23 ± 35.7 |  | 2.9 ± 3.3 |  | 44.3 ± 1.9 |  |  |  |  |  | 
15 | CC(=O)N[C@H](Cc1ccc(O)cc1)C(=O)N[C@@H](CC(=O)O)C(=O)N[C@@H](Cc1ccc(O)cc1)C(=O)N1CCC[C@H]1C(=O)NCC(=O)N[C@@H](CC(=O)O)C(=O)N[C@@H](Cc1ccc(O)cc1)C(=O)N[C@@H](CO)C(=O)N[C@@H](Cc1ccc(O)cc1)C(=O)N[C@@H](CC(C)C)C(=O)N[C@@H](Cc1ccc(O)cc1)C(=O)NCC(=O)N[C@H](C(=O)N[C@@H](CS)C(=O)NCC(N)=O)[C@@H](C)O [Ce-L2] (Ac-[dY]DYPGDYSYLYGTCG-NH2) | −44 ± 22.6 |  | 40.2 ± 27.6 |  | 48.2 ± 18.2 | 5.88 | 95.1 ± 5.2 |  |  | 4.89 ± 0.21 |  |  | 
